Measurements: patent US8158630B2, “Application of 2,5 -dihydroxymethyl-3,6-dimethyl pyrazine and its derivates in pharmacy” (Nanjing University of Chinese Medicine, priority 2010, dated 2012)

What was measured:
isolated hearts of rats = test: Effects on the cardiac contractility of isolated hearts of rats (Langendorff perfusion); design: species or system rat; details: 0.1 mmol/L; for heart dysrhythmia / +dp/dtmax (maximum value of left ventricular pressure increase) / Heart rate / LVEDP (left ventricular diastolic pressure) / LVSP (left ventricular systolic pressure) / −dp/dtmax (maximum value of left ventricular pressure decrease): isolated rat heart; for +dp/dtmax (maximum value of left ventricular pressure increase) / Heart rate / LVEDP (left ventricular diastolic pressure) / LVSP (left ventricular systolic pressure) / −dp/dtmax (maximum value of left ventricular pressure decrease): after administration
Experimental: Intraperitoneal injection of 1.2 g/kg urethane is carried out on rats and the hearts are collected. After the hearts are rinsed and cut in 100% oxygen saturated physiological saline at 0° C., they are connected to modified Langendorff heart perfusion equipments to couduct retrogressive perfusion via the aorta. The perfusate (in mmol/L) is NaCl 117, KCl 5.7, CaCl2 1.8, NaHCO3 4.4, NaH2PO4 1.5, MgCl2 1.7, HEPES 20, Glucose 11, Creatine 10, Taurine 20, and NaOH is used to adjust the pH value to 7.3. The probe of the pressure receptor is inserted into the left ventricle via the left auricle, and BioAmp amplifier is used to record the left ventricular pressure, and the electrocardiogram is measured at the same time.

normal rats = test: Effects on heart functions and hemodynamics of normal rats, intravenous administration; format: in vivo, rat; details: for LVEDP / LVSP / +dp/dtmax / −dp/dtmax: normal rats, within one minute after administration, n = 10; for +dp/dtmax / −dp/dtmax: in mmHg/s (unit assumed)
Experimental: After the rats are paralysed with 20% ethyl urethane (urethane) (1 g/kg) and fixed on a thermostatical operation table on their backs, needle-electrodes for electrocardiogram are subcutaneously inserted from their extremities and the lead II […] (ECG) and the heart rate (HR) are measured by inputting into the multiplying channel device. The right common carotid artery is isolated from the inner side of sternocleidomastoid muscle after the […] and temperature (37° C.) become stable, and the right common carotid artery is ligated at its head end and left ventricular cannulation is carried out. It is connected with the polygraph via a pressure transducer to measure the heart function indexes of left ventricle, in the meantime, the right femoral vein is isolated and venous cannulation is carried out for the intravenous administration, and the non-inserted end is connected to a syringe that is filled with 40 IU/mL heparin physiological saline, the multi-channel physiological signal acquisition and processing system is used to record the data. After the measured indexes become stable, the data at one minute before the drug administration are recorded as the blank control, and Liguzinediol is dissolved in physiological saline and then use 5, 10 and 20 mg/kg respectively as the low, mediate and high dosage groups, and the results within one minute after the intravenous administration are shown in Table 2. The heart rate aberration that is induced by Liguzinediol is not found in the three dosage groups after administration.

| SMILES | cardiac contractility of isolated hearts of rats (isolated hearts of rats) | heart dysrhythmia (isolated hearts of rats) | +dp/dtmax (maximum value of left ventricular pressure increase) (isolated hearts of rats) | Heart rate (isolated hearts of rats) | LVEDP (left ventricular diastolic pressure) (isolated hearts of rats) | LVSP (left ventricular systolic pressure) (isolated hearts of rats) | −dp/dtmax (maximum value of left ventricular pressure decrease) (isolated hearts of rats) | further results |
| --- | --- | --- | --- | --- | --- | --- | --- | --- |
| CC(=O)OCc1nc(C)c(COC(C)=O)nc1C [Compound 1, 2,5-diacetoxymethyl-3,6-dimethyl pyrazine] | significantly increase | no heart dysrhythmia is found | 831.9 ± 268.2 | 191.6 ± 58.0^Δ | −14.4 ± 7.2 | 26.1 ± 12.5 | −884.9 ± 347.0 |  |
| Cc1nc(CO)c(C)nc1CO [Compound 2, 2,5-dihydroxymethyl-3,6-dimethyl pyrazine] | significantly increase | no heart dysrhythmia is found | 790.3 ± 251.6 | 154.4 ± 28.8^Δ | −13.0 ± 2.3 | 26.9 ± 5.9 | −763.5 ± 188.0 | LVEDP (normal rats; 5 mg/kg i.v.): 7.9 ± 6.3; LVSP (normal rats; 5 mg/kg i.v.): 132.7 ± 9.1; +dp/dtmax (normal rats; 5 mg/kg i.v.): 12027 ± 1388; −dp/dtmax (normal rats; 5 mg/kg i.v.): −10238 ± 1247; LVEDP (normal rats; 10 mg/kg i.v.): 6.9 ± 6.1; LVSP (normal rats; 10 mg/kg i.v.): 135.7 ± 10.9; +dp/dtmax (normal rats; 10 mg/kg i.v.): 11484 ± 1410; −dp/dtmax (normal rats; 10 mg/kg i.v.): −9667 ± 670; LVEDP (normal rats; 20 mg/kg i.v.): 6.3 ± 4.8; LVSP (normal rats; 20 mg/kg i.v.): 139.7 ± 4.6; +dp/dtmax (normal rats; 20 mg/kg i.v.): 12347 ± 1030; −dp/dtmax (normal rats; 20 mg/kg i.v.): −9964 ± 1045; left ventricular contraction and diastolic function of rat heart (normal rats; rats, 5, 10 and 20 mg/kg i.v.): significantly increase the left ventricular contraction and improve the diastolic function; heart rate aberration (normal rats; rats, 5, 10 and 20 mg/kg i.v., after administration): not found |
